Experimental data from patent US9157109B2, “Biosensors utilizing ink jet-printed biomolecule compatible sol gel inks and uses thereof” (McMaster University, priority 2009, dated 2015).
Read-outs that look alike come from different tables or passages of the source.

Key:
[1] = biological target: T1, acetylcholinesterase (AChE) (Electrophorus electricus, UniProt O42275); experiment: Ellman colorimetric assay on ink jet printed PVAm/silica/AChE+DTNB/silica paper sensor
Protocol: The performance can be assessed in two ways: a) by direct addition of substrate solution to sensing area, and b) by immersion into the substrate solution. […] However, in the case of direct analyte addition, only small amounts of reagent are needed (5 μL) relative to dipstick sensors (˜2 mL), reducing cost per assay. […] The color intensity of the sensing areas was quantified by obtaining a digital image (Canon A630, 8.0 MegaPixel operated in automatic mode with no flash and with the macroimaging setting on) and using ImageJ™ software to analyze the jpeg images. ImageJ™ software uses a […] color scale and for image processing the images were inverted so that areas that were originally white became black and corresponded to a color intensity of zero and while areas that were originally black became white and corresponded to […]. Based on this scale, increases in the amount of yellow color cause an increase in color intensity of the sensor strips. To account for variations in color intensity owing to differences in environmental illumination, a background subtraction (color intensity of the paper surface closest to the sensing area) was done for each data point.
The intensity was determined by analyzing a digital image with the ImageJ software as described above.

[2] = biological target: T1, acetylcholinesterase (AChE); type: biochemical; parameters: purchased Sigma-Aldrich
[3] = biological target: T1, acetylcholinesterase (AChE); experiment: biochemical; type: biochemical; parameters: purchased Sigma-Aldrich; conditions: for apparent saturated inhibition concentration / LOD: IPA lateral flow sensor; for detection limit (LOD): S/N=3, IPA lateral flow sensor
Protocol: 20 μL of IPA (0˜5 mM) was then added into each well and incubated for 5 min to allow color development. The absorbance at 640 nm was then measured using a TECAN plate reader.
The performance of the sensor under optimized conditions can be assessed in two ways: (1) directly (normal lateral flow-based chromatography) without incubating the contaminated sample, and (2) inverted lateral flow-based chromatography with incubation of the sample. For the latter case, after incubation 5 min at room temperature, the sensor was inverted again and immersed into dH2O for bringing up IPA by lateral flow action into sensing area of the strip above the liquid level.
The sensor was then inverted again and immersed into dH2O to bring up IPA by lateral flow action into the sensing area of the strip above the liquid level. The color intensity was determined by analyzing a digital image with the ImageJ software as described above.

β-Glucuronidase (GUS) = biological target: T2, β-Glucuronidase (GUS) (Escherichia coli, UniProt P05804); type: biochemical, E. coli
T2 construct: purchased Sigma-Aldrich type VII-A (catalogue number not given)
Protocol: For this, all of these substrates were dissolved separately with sodium phosphate buffer (75 mM, pH 8). […] 20 μL of GUS (final concentration of 1 U/mL) was then added into each well and incubated for 30 min to allow color development. The absorbance at 610, 400, and 380 nm was then measured using a TECAN M1000 plate reader. A digital camera was also used to take a photograph of the plate. […] (0-10 mM), and FeCl3 (2 mM) were entrapped on paper as described previous section (FIG. 13b). The sensor was then immersed into GUS solution (1 U/mL) and removed as soon as the Gus solution has reached the sensing region through FeCl3 zone followed by a certain incubation time (5, 30, and 60 min) at room temperature.
Experiments were conducted firstly in 96-well plate, in which GUS (final concentration of 1 U/mL) was entrapped in silica gel. […] (4 mM) and oxidizing agents (1 mM each) were then added to each well (designated for the individual oxidizing agent), and incubated for 30 min. The concentration gradient (0-30 mM) of FeCl3 was also observed in 96-well plate. The absorbance at 610 was measured using a TECAN M1000 plate reader for each experiment. A digital camera was also used to take a photograph of the plate. […] (3 mM) were entrapped on paper using biocompatible silica material in order to make the sensor strips, as described in the previous section. The performance of the sensor was then assayed by dipping it into the GUS solution (1 U/mL) to allow the enzyme solution to reach the sensing zone through FeCl3 zone via lateral flow. The color development times tested were 5, 30, and 60 min.

[4] = biological target: T1, acetylcholinesterase (AChE); type: biochemical; parameters: purchased Sigma-Aldrich; conditions: milk and apple juice samples (pH adjusted 7-8)
[5] = biological target: T1, acetylcholinesterase (AChE); type: biochemical; parameters: purchased Sigma-Aldrich; remark: listed apart in the source
[6] = biological target: T1, acetylcholinesterase (AChE); conditions: read-out: KM, literature value; cited from earlier work

T1 sequence (O42275 24-633): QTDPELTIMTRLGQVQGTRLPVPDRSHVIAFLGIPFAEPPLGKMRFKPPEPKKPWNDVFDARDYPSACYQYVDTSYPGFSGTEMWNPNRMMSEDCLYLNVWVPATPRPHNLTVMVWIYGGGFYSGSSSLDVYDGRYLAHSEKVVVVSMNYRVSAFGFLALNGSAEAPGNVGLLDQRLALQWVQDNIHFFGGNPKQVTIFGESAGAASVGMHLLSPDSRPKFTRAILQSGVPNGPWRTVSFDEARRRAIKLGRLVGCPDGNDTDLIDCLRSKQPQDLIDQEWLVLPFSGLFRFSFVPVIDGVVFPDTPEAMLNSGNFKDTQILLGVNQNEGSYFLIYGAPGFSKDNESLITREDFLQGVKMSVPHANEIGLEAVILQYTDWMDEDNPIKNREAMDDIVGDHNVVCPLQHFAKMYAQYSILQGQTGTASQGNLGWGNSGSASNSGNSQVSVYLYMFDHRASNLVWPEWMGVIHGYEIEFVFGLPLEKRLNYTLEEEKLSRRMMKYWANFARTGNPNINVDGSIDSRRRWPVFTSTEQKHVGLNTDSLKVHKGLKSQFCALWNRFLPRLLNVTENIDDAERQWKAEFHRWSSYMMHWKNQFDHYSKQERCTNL
T2 sequence (P05804 whole entry): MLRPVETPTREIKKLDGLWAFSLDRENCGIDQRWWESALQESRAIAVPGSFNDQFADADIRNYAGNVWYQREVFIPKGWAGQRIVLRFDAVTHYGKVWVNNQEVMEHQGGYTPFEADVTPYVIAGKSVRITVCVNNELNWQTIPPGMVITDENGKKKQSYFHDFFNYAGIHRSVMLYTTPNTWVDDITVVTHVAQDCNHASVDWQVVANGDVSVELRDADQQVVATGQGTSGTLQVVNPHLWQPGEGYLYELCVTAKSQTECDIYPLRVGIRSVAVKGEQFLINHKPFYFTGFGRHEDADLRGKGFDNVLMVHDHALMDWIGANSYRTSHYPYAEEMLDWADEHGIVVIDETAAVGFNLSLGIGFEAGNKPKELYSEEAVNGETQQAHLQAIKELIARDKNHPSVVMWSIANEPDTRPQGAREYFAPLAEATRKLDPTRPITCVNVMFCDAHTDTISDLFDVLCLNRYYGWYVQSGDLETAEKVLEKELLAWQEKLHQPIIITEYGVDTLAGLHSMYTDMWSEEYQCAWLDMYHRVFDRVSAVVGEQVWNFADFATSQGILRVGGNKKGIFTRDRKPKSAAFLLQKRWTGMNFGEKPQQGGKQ

aflatoxin B1 [AfB1]
detection limit (LOD) [1]: ~30 nM
inhibition of AChE ([1]; 0.1 µM): ~45%
IC50 ([1]; read-out: IC50 for inhibition of AChE): ~0.1 µM

OCC(O)CO [glycerol]
effect of additive on AChE activity in solution [2]: did not produce a decrease in AChE activity

CNC(=O)Oc1cccc2ccccc12 [carbaryl]
IC50 [3]: 0.05 µM
apparent saturated inhibition concentration [3]: ~5 µM
detection limit (LOD) [3]: ~100 nM

O.O.O.O.O.O.[Cl-].[Cl-].[Cl-].[Fe+3] [FeCl3, FeCl3. 6H2O]
blue color development with oxidizing agent (β-Glucuronidase (GUS)): strongest visual color intensity

CCOC(=O)CC(SP(=S)(OC)OC)C(=O)OCC (stereo not shown) [malathion]
IC50 [3]: ~0.01 µM
LOD [3]: ca. 10 μM

NC1CCCCC1.O=C(O)[C@H]1O[C@@H](Oc2c[nH]c3ccccc23)[C@H](O)[C@@H](O)[C@@H]1O [IBDG, indoxyl-β-D-glucuronide cyclohexylammonium salt]
visual color formation via GUS catalyzed hydrolysis (β-Glucuronidase (GUS)): relatively faint color

Triton X-100
effect of additive on AChE activity in solution [2]: No significant loss of AChE activity

N#CC1=C(C#N)C(=O)C(Cl)=C(Cl)C1=O [DDQ, 2,3-dichloro-5,6-dicyanobenzoquainone]
blue color development with oxidizing agent (β-Glucuronidase (GUS)): poorest performance for blue color development

O=C(O)[C@H]1O[C@@H](Oc2ccc([N+](=O)[O-])cc2)[C@H](O)[C@@H](O)[C@@H]1O [PNPG, p-nitrophenyl-β-D-glucuronide]
visual color formation via GUS catalyzed hydrolysis (β-Glucuronidase (GUS); in solution for 30 min): relatively faint color

CNC(=O)Oc1cccc2c1OC(C)(C)O2 [bendiocarb]
IC50 [3]: 0.02 µM
apparent saturated inhibition concentration [3]: around 1 μM
detection limit (LOD) [3]: ca. 10 nM

CCOP(=O)(OCC)Oc1ccc([N+](=O)[O-])cc1 [paraoxon]
detection limit [4]: ~10 nm
LOD [3]: ca. 10 μM
inhibition of AChE ([5]; 1 mM paraoxon sprayed on apple and head lettuce): ~50%
inhibition of AChE ([5]; 50 mM paraoxon sprayed on apple and head lettuce): almost complete inhibition
detection limit (LOD) ([1]; S/N=3, Ellman paper sensor): ca. 100 nM
inhibition of AChE ([1]; at 100 nM inhibitor): ~25%

CC(=O)Oc1ccc(N=C2C=CC(=O)C=C2)cc1 [IPA, indophenyl acetate]
Km [6]: ~700 µM
Km [3]: ~1500 µM
